Legend:
[1] = Bioavailability / brain exposure in CD1 mice; assay type: in vivo; conditions: dose of 30 mg/kg
Experimental: The compounds have good properties for oral dosing and readily cross the blood brain barrier. For example, in CD1 mice, Compound 9 has a maximum concentration in brain plasma of 5067 ng/ml after 30 minutes at a dose of 30 mg/kg. Compound 12 has a maximum concentration in brain plasma of 5853 ng/ml after 8 hours at a dose of 30 mg/kg.

[2] = test system: Human osteosarcoma U2OS cells; experiment: Acidic vesicle formation (lysosome/autolysosome staining, LysoView 633 / LysoTracker Deep Red), stimulation of autophagy; assay type: cell-based; conditions: 24 hours; for activation at 0.8 µM: read-out: Activity (percentage increase in acidic vesicle formation over the DMSO-treated control); for activation at 10 µM: read-out: increase in acidic vesicle formation over the DMSO-treated control
Summary of the method: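 U2OS cells treated with compound for 24 h, then stained 45 min at 37° C with 1× LysoView 633 or 50 nM LysoTracker Deep Red plus Hoechst nuclei. Live-cell fluorescence images (Cy5/DAPI) scored for acidic vesicle formation relative to DMSO control.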

[3] = test system: C57BL/6JRj mice injured by intra-nigral injections of alpha-synuclein and CBE; experiment: Mouse model of Parkinson's disease (intra-nigral alpha-synuclein protofibrils plus CBE); assay type: in vivo; conditions: 30 mg/kg per os on the first day, then 10 mg/kg per os once a day
From the text: This model (run by Neuro-Sys SAS, France) uses C57BL/6JRj mice injured by intra-nigral injections of a solution containing protofibrils of alpha-synuclein (α-syn, precisely quantified by automatic Western Blot) and combined with pharmacological inhibition of GBA by conduritol B epoxide (CBE), in aged mice. The model mimics the main pathologies of PD: loss of dopaminergic neurons in the substantia nigra, neuroinflammation, deficits in motor coordination and synucleinopathy (α-syn aggregation). Any substance with positive effects in this model may be useful as a new therapeutic agent for the treatment or prevention of PD.
• Type of animal: C57BL/6JRj (Male) • Age: 18 months old • Supplier: Janvier Labs • Animal number: 10 mice per group • Acclimation and clinical signs: Animals arrived on site 7 days (one week) before the experiment to allow optimal acclimation.
Overview: CBE was administered along with the test compounds, starting on the day of the stereotaxic injections of the α-syn oligomer preparation.
Test compounds at specific concentrations (see below) were administered per os (gavage or drinking water). • Test compound treatment: The test compounds were solubilized (vehicle=water), aliquoted and stored at −20° C. Aliquots were thawed overnight at 4° C. and given once a day. Treatment started on the day of the stereotaxic injections of α-syn preparation (Day 0). Treatment was administrated until the last day of the experiment (Day 28; =day of dissection). • CBE dose and administration: 50 mg/kg, Intraperitoneal (i.p.), twice a day. • CBE treatment: Administration of CBE (vehicle=saline [NaCl 0.9%] started on the day of the stereotaxic injections of α-syn preparation (Day 0). Treatment was administrated until the last day of the experiment (Day 28; =day of dissection), • Untreated control: vehicle (saline; i.p.) administered twice a day, • Stereotaxic injections of α-syn oligomers: Human α-syn peptide (stock at 69 μM in water at −20° C.) was reconstituted at 50 μM in NaCl, 0.9% (final concentration). All mice in compound treated groups were subjected to surgery and received 2.5 μL of α-syn solution. Mice were anesthetized by isoflurane (4%, for induction), in an induction chamber coupled with a vaporizer and to an oxygen concentrator. Mice were placed on the stereotaxic frame. Anesthesia was maintained by isoflurane (2%) with a face mask coupled to the isoflurane vaporizer and oxygen concentrator machine. The skull was exposed and holes were drilled. The α-syn preparation was bilaterally injected into the SNpc, at the following coordinates: A-P, −0.3 mm; M-L, +0.12 mm; D-V, −0.45 mm. Depth of anesthesia and rectal temperature were verified every 5 minutes. After surgery, mice were allowed to recover before being placed back in the cage.
• i) Body mass • ii) Assessment of motor coordination: bar test and grid walking test • iii) Dopaminergic Tyrosine hydroxylase (TH)-positive neuron survival in the substantia nigra pars compacta (SNpc), i.e. a measure of the number of TH neurons in the SNpc • iv) α-syn area in TH positive neurons (a measure of the degree of aggregation of α-syn in TH positive neurons, in the SNpc)
• Overall: For overall evaluation and body mass, mice were observed daily, and body mass was monitored prior to drug administration. • Assessment of motor coordination: bar test.
In the third week (Week 3) post-surgery, motor coordination of the mice was assessed with the bar test. The principle of the test is based on the capacity of the mice to cross a horizontal bar connected to a platform (18 mm of diameter, 60 cm long). The test requires good coordination between front and hindlimbs, and good balance. Mice are placed at one extremity of the bar and need to reach a platform located at the other side of the bar. Motor coordination was studied after two training sessions, one and two days before the test. Three sessions were recorded by a video camera system. […]

Row | SMILES | maximum concentration in brain plasma [1] [ng/mL] | time of maximum concentration in brain plasma [1] [min] | activation at 0.8 µM [2] [%] | activation at 10 µM [2] [%] | bar test: decrease in the mean time required to cross the bar compared to the α-syn/CBE injured group ([3]; week 3) [%] | bar test: reduction in the mean number of steps required to cross the bar compared to the α-syn/CBE injured group ([3]; week 3) [%] | bar test: reduction in the number of misplaced steps (failed strides) compared to the α-syn/CBE injured group ([3]; week 3) [%] | decrease in the aggregation of α-syn in TH neurons (α-syn area) compared to the α-syn/CBE injured group ([3]; week 4) [%] | grid walking test: increase in the total distance travelled during the test ([3]; week 4) [%] | grid walking test: reduction in the mean number of failures per meter (number of missed steps) ([3]; week 4) [%] | increase in the number of dopaminergic TH positive neurons in the SNpc compared to the α-syn/CBE injured group ([3]; week 4) [%]
1 | CCOc1ccc(Cl)cc1CN1CCN[C@@H](C)C1.Cl [Compound 9, (S)-1-(5-chloro-2-ethoxybenzyl)-3-methylpiperazine hydrochloride] | 5067 | 30 | 10 to 30 | ≥ 25 | – | – | – | – | – | – | –
2 | CCOc1ccc(CN2CC[C@@H](CN)C2)cc1Cl.Cl [Compound 30, (S)-(1-(3-chloro-4-ethoxybenzyl)pyrrolidin-3-yl)methanamine hydrochloride] | – | – | > 100 | ≥ 25 | 25 | 7 | 19 | 30 | 36 | 28 | 57

— patent US20260193180A1, “AUTOPHAGY INDUCING COMPOUNDS AND USES THEREOF” (SAMSARA THERAPEUTICS INC., priority 2022, published 2026)
